In ChEMBL document CHEMBL5321219, “Selective degradation of cellular BRD3 and BRD4-L promoted by PROTAC molecules in six cancer cell lines” (Eur J Med Chem, 2023):
Active and inactive are the calls of the source. No cut-off for these calls is given here.

Columns and labels:
[1] = target: T1, Bromodomain-containing protein 3 (Homo sapiens, UniProt Q15059); test: Binding affinity to recombinant human BRD3 BD1 (24 to 144 residues) assessed as inhibition constant by fluorescence polarization binding assay
[2] = target: T1, Bromodomain-containing protein 3; test: Binding affinity to recombinant human BRD3 BD2 (306 to 417 residues) assessed as inhibition constant by fluorescence polarization binding assay
MM1.S [3] = test: Antiproliferative activity against human MM1.S cells assessed as cell growth inhibition measured after 4 days by CellTitre-Glo assay; format: functional, cell-based; conditions: 96 h
MV4-11 = test: Antiproliferative activity against human MV4-11 cells assessed as cell growth inhibition measured after 3 days by CellTitre-Glo assay; format: functional, cell-based; conditions: MV4-11, 72 h
[4] = target: T2, Protein cereblon/Bromodomain-containing protein 4 (Homo sapiens) (UniProt O60885+Q96SW2); test: PROTAC activity at CRBN/BRD4-L in human MM1.S cells assessed as induction of protein degradation at 30 nM measured after 3 to 6 hrs by Western blot analysis; format: cell-based; conditions: time 3-6 hrs
[5] = target: T3, Protein cereblon/Bromodomain-containing protein 2 (Homo sapiens) (UniProt P25440+Q96SW2); test: PROTAC activity at CRBN/BRD2 in human MM1.S cells assessed as induction of protein degradation at 30 nM measured around 24 hrs by Western blot analysis; format: cell-based
[6] = target: T3, Protein cereblon/Bromodomain-containing protein 2 (Homo sapiens); test: PROTAC activity at CRBN/BRD2 in human MCF7 cells assessed as induction of protein degradation at 30 nM measured around 24 hrs by Western blot analysis; format: cell-based
[7] = target: T4, Protein cereblon/Bromodomain-containing protein 3 (Homo sapiens) (UniProt Q15059+Q96SW2); test: PROTAC activity at CRBN/BRD3 in human MCF7 cells assessed as induction of protein degradation measured after 24 hrs by Western blot analysis; format: cell-based; conditions: dose 1-300 nM
[8] = target: T4, Protein cereblon/Bromodomain-containing protein 3 (Homo sapiens); test: PROTAC activity at CRBN/BRD3 in human HeLa cells assessed as induction of protein degradation measured after 24 hrs by Western blot analysis; format: cell-based; conditions: dose 1-300 nM
[9] = target: T4, Protein cereblon/Bromodomain-containing protein 3 (Homo sapiens); test: PROTAC activity at CRBN/BRD3 in human MV4-11 cells assessed as induction of protein degradation at 0.1 to 10 nM measured after 24 hrs by Western blot analysis; format: cell-based; conditions: dose 0.1-10 nM
[10] = target: T2, Protein cereblon/Bromodomain-containing protein 4 (Homo sapiens); test: PROTAC activity at CRBN/BRD4-L in human MCF7 cells assessed as induction of protein degradation measured after 24 hrs by Western blot analysis; format: cell-based; conditions: dose 1-300 nM
[11] = target: T2, Protein cereblon/Bromodomain-containing protein 4 (Homo sapiens); test: PROTAC activity at CRBN/BRD4-L in human HeLa cells assessed as induction of protein degradation measured after 24 hrs by Western blot analysis; format: cell-based; conditions: dose 1-300 nM
[12] = target: T3, Protein cereblon/Bromodomain-containing protein 2 (Homo sapiens); test: PROTAC activity at CRBN/BRD2 in human MCF7 cells assessed as induction of protein degradation at 1 to 300 nM measured after 24 hrs by Western blot analysis; format: cell-based; conditions: dose 1-300 nM
[13] = target: T3, Protein cereblon/Bromodomain-containing protein 2 (Homo sapiens); test: PROTAC activity at CRBN/BRD2 in human HepG2 cells assessed as induction of protein degradation at 10 to 3000 nM measured after 24 hrs by Western blot analysis; format: cell-based; conditions: dose 10-3000 nM
[14] = target: T2, Protein cereblon/Bromodomain-containing protein 4 (Homo sapiens); test: PROTAC activity at CRBN/BRD4-S in human HGC-27 cells assessed as induction of protein degradation at 0.1 to 30 nM measured after 24 hrs by Western blot analysis; format: cell-based; conditions: dose 0.1-30 nM
[15] = target: T2, Protein cereblon/Bromodomain-containing protein 4 (Homo sapiens); test: PROTAC activity at CRBN/BRD4-S in human MCF7 cells assessed as induction of protein degradation at 1 to 300 nM measured after 24 hrs by Western blot analysis; format: cell-based; conditions: dose 1-300 nM
[16] = target: T2, Protein cereblon/Bromodomain-containing protein 4 (Homo sapiens); test: PROTAC activity at CRBN/BRD4-S in human A549 cells assessed as induction of protein degradation at 3 to 1000 nM measured after 24 hrs by Western blot analysis; format: cell-based; conditions: dose 3-1000 nM
[17] = target: T4, Protein cereblon/Bromodomain-containing protein 3 (Homo sapiens); test: PROTAC activity at CRBN/BRD3 in human U-937 cells assessed as induction of protein degradation by Western blot analysis; format: cell-based
[18] = target: T2, Protein cereblon/Bromodomain-containing protein 4 (Homo sapiens); test: PROTAC activity at CRBN/BRD4-S in human MV4-11 cells assessed as induction of protein degradation at 0.1 to 30 nM measured after 24 hrs by Western blot analysis; format: cell-based; conditions: dose 0.1-30 nM
[19] = target: T3, Protein cereblon/Bromodomain-containing protein 2 (Homo sapiens); test: PROTAC activity at CRBN/BRD2 in human U-937 cells assessed as induction of protein degradation by Western blot analysis; format: cell-based
[20] = target: T2, Protein cereblon/Bromodomain-containing protein 4 (Homo sapiens); test: PROTAC activity at CRBN/BRD4-S in human U-937 cells assessed as induction of protein degradation by Western blot analysis; format: cell-based
MCF7 = test: Antiproliferative activity against human MCF7 cells assessed as cell growth inhibition measured after 4 days by CCK-8 assay; format: functional, cell-based; conditions: MCF7, 96 h
A549 = test: Antiproliferative activity against human A549 cells assessed as cell growth inhibition measured after 4 days by CCK-8 assay; format: functional, cell-based; conditions: A549, 96 h
MM1.S [21] = test: Downregulation of BRD3 expression in human MM1.S cells by proteomic analysis; format: functional, cell-based
MM1.S [22] = test: Downregulation of BRD4 expression in human MM1.S cells by proteomic analysis; format: functional, cell-based
MM1.S [23] = test: Downregulation of BRD2 expression in human MM1.S cells by proteomic analysis; format: functional, cell-based
[24] = target: T4, Protein cereblon/Bromodomain-containing protein 3 (Homo sapiens); test: (§1) PROTAC activity at CRBN/BRD3 in human MM1.S cells assessed as induction of protein degradation at 30 nM pretreated with (6R)-N-(4-chlorophenyl)-1-methyl-8-(1-methyl-1H-pyrazol-4-yl)-5,6-dihydro-4H-benzo[f][1,2,4]triazolo[4,3-a]azepin-6-amine for 2 hrs followed by compound addition and measured after 4 hrs by Western blot analysis; format: cell-based
[25] = target: T2, Protein cereblon/Bromodomain-containing protein 4 (Homo sapiens); test: as §1, with “CRBN/BRD4-L” for “CRBN/BRD3”; format: cell-based
MM1.S [26] = test: Induction of cell cycle arrest in human MM1.S cells assessed as accumulation of cells at S phase at 1 nM incubated for 24 hrs by flow cytometry analysis (reference value: 22.37%); format: functional
MM1.S [27] = test: Induction of cell cycle arrest in human MM1.S cells assessed as accumulation of cells at G1 phase at 10 nM incubated for 24 hrs by flow cytometry analysis (reference value: 56.32%); format: functional
MM1.S [28] = test: Induction of cell cycle arrest in human MM1.S cells assessed as accumulation of cells at S phase at 10 nM incubated for 24 hrs by flow cytometry analysis (reference value: 22.37%); format: functional
MM1.S [29] = test: Induction of cell cycle arrest in human MM1.S cells assessed as accumulation of cells at G1 phase at 100 nM incubated for 24 hrs by flow cytometry analysis (reference value: 56.32%); format: functional
MM1.S [30] = test: Induction of cell cycle arrest in human MM1.S cells assessed as accumulation of cells at S phase at 100 nM incubated for 24 hrs by flow cytometry analysis (reference value: 22.37%); format: functional
[31] = target: T2, Protein cereblon/Bromodomain-containing protein 4 (Homo sapiens); test: PROTAC activity at CRBN/BRD4-S in human MM1.S cells assessed as induction of protein degradation at 0.1 to 30 nM measured after 24 hrs by Western blot analysis; format: cell-based; conditions: dose 0.1-30 nM
[32] = target: T4, Protein cereblon/Bromodomain-containing protein 3 (Homo sapiens); test: PROTAC activity at CRBN/BRD3 in human MCF7 cells assessed as induction of protein degradation at 30 nM by Western blot analysis; format: cell-based; conditions: time 1-3 hrs, TDE = time-dependent effect

T3 sequence (P25440 whole entry, looked up): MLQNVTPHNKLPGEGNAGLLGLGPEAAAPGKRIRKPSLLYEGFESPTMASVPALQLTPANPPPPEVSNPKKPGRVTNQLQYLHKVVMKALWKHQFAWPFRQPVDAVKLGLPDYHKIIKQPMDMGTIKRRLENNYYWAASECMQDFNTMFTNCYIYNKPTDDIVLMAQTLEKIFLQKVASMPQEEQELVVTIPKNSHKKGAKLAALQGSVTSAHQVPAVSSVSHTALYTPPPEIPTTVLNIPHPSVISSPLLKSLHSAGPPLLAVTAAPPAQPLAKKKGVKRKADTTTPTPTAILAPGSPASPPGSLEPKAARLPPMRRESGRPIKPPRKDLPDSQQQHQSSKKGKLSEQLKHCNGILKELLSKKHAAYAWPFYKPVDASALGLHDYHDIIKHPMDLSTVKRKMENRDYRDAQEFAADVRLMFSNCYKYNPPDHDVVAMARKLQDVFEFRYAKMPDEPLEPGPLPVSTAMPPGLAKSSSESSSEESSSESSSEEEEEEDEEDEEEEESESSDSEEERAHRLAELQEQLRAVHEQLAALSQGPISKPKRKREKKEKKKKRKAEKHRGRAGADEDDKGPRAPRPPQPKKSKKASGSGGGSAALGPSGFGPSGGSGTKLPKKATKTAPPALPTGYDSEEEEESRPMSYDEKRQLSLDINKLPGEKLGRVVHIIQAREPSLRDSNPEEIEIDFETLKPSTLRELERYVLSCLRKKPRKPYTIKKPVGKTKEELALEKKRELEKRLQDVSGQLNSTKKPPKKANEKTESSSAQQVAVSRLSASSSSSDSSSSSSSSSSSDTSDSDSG
T3 sequence (Q96SW2 whole entry, looked up): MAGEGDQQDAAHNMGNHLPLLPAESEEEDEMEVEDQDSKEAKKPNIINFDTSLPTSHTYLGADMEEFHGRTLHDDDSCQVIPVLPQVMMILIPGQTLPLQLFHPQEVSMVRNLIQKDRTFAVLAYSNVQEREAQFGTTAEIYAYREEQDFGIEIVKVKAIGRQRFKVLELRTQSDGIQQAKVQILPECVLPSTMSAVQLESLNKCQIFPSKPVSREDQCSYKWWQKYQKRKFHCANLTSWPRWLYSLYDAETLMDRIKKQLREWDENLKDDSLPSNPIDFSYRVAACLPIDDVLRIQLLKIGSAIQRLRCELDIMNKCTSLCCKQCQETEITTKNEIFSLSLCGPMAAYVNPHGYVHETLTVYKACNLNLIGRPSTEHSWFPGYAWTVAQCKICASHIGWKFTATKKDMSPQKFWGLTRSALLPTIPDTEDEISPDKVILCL
T4 sequence (Q15059 2-726 limits assumed): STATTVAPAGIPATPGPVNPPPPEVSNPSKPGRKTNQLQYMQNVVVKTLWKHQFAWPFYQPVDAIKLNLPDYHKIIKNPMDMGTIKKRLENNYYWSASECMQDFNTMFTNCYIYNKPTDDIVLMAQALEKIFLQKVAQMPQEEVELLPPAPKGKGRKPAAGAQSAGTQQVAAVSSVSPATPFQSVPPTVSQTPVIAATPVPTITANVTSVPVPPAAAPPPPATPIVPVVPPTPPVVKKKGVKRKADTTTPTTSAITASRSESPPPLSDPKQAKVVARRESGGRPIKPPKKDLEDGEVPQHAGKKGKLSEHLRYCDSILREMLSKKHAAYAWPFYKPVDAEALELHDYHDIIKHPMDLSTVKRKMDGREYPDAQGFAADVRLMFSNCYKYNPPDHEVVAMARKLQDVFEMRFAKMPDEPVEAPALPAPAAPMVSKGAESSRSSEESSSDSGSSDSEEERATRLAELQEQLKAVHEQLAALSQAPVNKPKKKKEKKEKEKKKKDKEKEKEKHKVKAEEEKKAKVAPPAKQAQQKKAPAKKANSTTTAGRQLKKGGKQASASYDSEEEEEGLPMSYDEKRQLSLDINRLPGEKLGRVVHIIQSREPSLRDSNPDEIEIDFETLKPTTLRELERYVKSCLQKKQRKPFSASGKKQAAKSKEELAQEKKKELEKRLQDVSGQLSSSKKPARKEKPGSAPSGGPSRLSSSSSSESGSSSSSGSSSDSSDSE
T4 sequence (Q96SW2 whole entry partner): as the sequence (Q96SW2 whole entry, looked up) above
T2 sequence (Q96SW2 whole entry, looked up, other chains not shown): as the sequence (Q96SW2 whole entry, looked up) above
T1 sequence (Q15059 whole entry, the tested form may be a part): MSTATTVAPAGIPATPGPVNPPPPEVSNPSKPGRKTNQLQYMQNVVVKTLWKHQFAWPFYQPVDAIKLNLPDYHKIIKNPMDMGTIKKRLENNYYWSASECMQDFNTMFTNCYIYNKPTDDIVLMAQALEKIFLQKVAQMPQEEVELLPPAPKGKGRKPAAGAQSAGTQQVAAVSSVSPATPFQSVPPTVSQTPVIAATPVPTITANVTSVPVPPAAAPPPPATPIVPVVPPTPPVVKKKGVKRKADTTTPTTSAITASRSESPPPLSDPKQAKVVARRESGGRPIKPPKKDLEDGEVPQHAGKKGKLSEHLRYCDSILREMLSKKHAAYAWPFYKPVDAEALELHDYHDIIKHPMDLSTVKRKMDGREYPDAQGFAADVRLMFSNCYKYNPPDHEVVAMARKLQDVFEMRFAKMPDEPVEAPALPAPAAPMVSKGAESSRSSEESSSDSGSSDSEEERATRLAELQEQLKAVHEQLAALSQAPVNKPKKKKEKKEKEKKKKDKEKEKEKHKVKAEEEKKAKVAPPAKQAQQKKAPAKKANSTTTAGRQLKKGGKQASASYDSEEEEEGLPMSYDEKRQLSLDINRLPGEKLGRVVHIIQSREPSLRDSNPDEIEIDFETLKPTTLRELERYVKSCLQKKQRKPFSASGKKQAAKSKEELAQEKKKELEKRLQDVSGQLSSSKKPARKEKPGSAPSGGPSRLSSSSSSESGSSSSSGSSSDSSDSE

Cc1nnc2n1-c1ccc(-c3ccc(CNCCCCc4cccc5c4CN(C4CCC(=O)NC4=O)C5=O)cc3)cc1C(Nc1ccc(Cl)cc1)CC2 (stereo not given)
Ki [1]: 12 nM
Ki [2]: 2.45 nM
IC50 (MM1.S [3]): 95.2 nM
IC50 (MV4-11): 6.31 nM
Activity [4]: Active
Activity [5]: Active
Activity [6]: Active
Activity [7]: Dose-Dependent Effect
Activity [8]: Dose-Dependent Effect
Activity [9]: inactive
Activity [10]: Dose-Dependent Effect
Activity [11]: Dose-Dependent Effect
Activity [12]: inactive
Activity [13]: inactive
Activity [14]: inactive
Activity [15]: inactive
Activity [16]: inactive
Activity [17]: inactive
Activity [18]: Active
Activity [19]: Dose-Dependent Effect
Activity [20]: Dose-Dependent Effect
IC50 (MCF7): 230 nM
IC50 (A549): 14300 nM
Activity (MM1.S [21]): Active
Activity (MM1.S [22]): Active
Activity (MM1.S [23]): inactive
Activity [24]: inactive
Activity [25]: inactive
Activity (MM1.S [26]): 21.35%
Activity (MM1.S [27]): 63.9%
Activity (MM1.S [28]): 14.97%
Activity (MM1.S [29]): 65.67%
Activity (MM1.S [30]): 13.23%
Activity [31]: inactive
Activity [32]: Tde
